The values below come from US10689392B2, “Anti-cancer compounds targeting ral GTPases and methods of using the same” (The Regents of the University of Colorado, a body corporate, priority 2011, dated 2020).

Data set [1] relates to MiaPaCa2 pancreatic cell line. The settings on record: cited from earlier work.
For data set [2], the system named is lung cancer cell lines A549, H2009, H358, H460, SW1573. Kind of data set: Combination testing with MEK inhibitor AZD6244 in lung cancer cell lines. Format: cell-based, human. The conditions noted are these: in conjunction with MEK inhibitor AZD6244, lung cancer cell lines.
The target of the next data set is T1, RalA (Homo sapiens, UniProt P11233).
T1 construct: Xenograft tumors were collected 2 h (RBC10) or 3 h (RBC8) after injection; from tissue; host or cells: H2122 human lung cancer xenograft tumours grown subcutaneously in female nude mice
T1 sequence (P11233 1-206): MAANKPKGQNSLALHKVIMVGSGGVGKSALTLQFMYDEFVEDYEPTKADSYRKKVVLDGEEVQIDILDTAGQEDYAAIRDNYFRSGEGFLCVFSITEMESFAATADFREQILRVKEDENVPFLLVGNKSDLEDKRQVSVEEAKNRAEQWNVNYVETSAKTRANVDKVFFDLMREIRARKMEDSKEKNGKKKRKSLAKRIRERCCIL
As to the kind of experiment: RalA activity in H2122 xenograft tumors, RalBP1 pull-down. The conditions noted are these: single IP dose 50 mg/Kg, tumors collected 2 h (RBC10) or 3 h (RBC8) after injection, FIG. 12A. In kind it is in vivo, mice. On the procedure:
(§1) Human lung cancer cell line H2122 was inoculated subcutaneously into female nude mice and allowed to grow until tumors reached an average size of 200 mm^3. Mice were given a single IP dose of 50 mg/Kg RBC8, RBC10, or DMSO control. Xenograft tumors were collected 2 h (RBC10) or 3 h (RBC8) after injection. RalA and RalB activity in tumors were measured by pull-down assay using RalBP1 agarose beads and normalized to total protein.

Data set [3] can be described thus: Pharmacokinetics in mice after intraperitoneal or oral administration. Format: in vivo. The conditions noted are these: mouse, blood; for half-life: read-out: t½ (converted). On the procedure:
The pharmacokinetics of certain Ral-GTPase inhibiting compounds of the invention were evaluated in mice. Following intraperitoneal injection or oral administration, blood samples were collected over several hours and drug concentrations were evaluated by capillary coupled with Time of Flight (TOF) spectrometry.

A further data set has as its target T2, RalB (Homo sapiens, UniProt P11234).
T2 construct: Xenograft tumors were collected 2 h (RBC10) or 3 h (RBC8) after injection; from tissue; host or cells: H2122 human lung cancer xenograft tumours grown subcutaneously in female nude mice
T2 sequence (P11234 1-206): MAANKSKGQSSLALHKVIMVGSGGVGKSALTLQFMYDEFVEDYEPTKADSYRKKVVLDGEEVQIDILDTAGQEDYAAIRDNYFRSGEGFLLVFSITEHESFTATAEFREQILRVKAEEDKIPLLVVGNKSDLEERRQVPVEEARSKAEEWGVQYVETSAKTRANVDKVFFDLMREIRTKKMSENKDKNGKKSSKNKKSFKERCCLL
Kind of data set: RalB activity in H2122 xenograft tumors, RalBP1 pull-down. Format: in vivo, mice. The conditions noted are these: single IP dose 50 mg/Kg, tumors collected 2 h (RBC10) or 3 h (RBC8) after injection, FIG. 12B. As for the experimental part: as §1

Data set [4] has as its system bladder cancer cell lines CRL2169, J82, KU7, MGHU4, LULU2, UMUC3. Kind of data set: Combination testing with MEK inhibitor AZD6244 in bladder cancer cell lines. Format: cell-based, human. The conditions noted are these: in conjunction with MEK inhibitor AZD6244, bladder cancer cell lines.

Where two headings read alike, the source gives them in different places.

As for `COC(=O)[C@H](CC(C)C)NC(=O)N1CCN(Cc2nc[nH]c2C)C(=O)[C@@H]1Cc1ccccc1` [GGTI-2417], the “in vitro growth and survival” value in data set [1] was “inhibit the in vitro growth and survival”.

With `CCCCC(=O)N1c2ccccc2NC2=C(C(=O)CCC2)C1c1ccccc1Cl` (stereo not drawn) [RBC10, 11-(2-chlorophenyl)-10-pentanoyl-2,3,4,5,10,11-hexahydro-1H-dibenzo[b,e][1,4]diazepin-1-one], in data set [2], the “efficacy of the combination with AZD6244” value is listed as “synergistic efficacy”. Besides, the “RalA activity in tumors” value on RalA was “inhibition of RalA”. Further, in data set [3] (intraperitoneal (IP)), the AUC(0-inf) (usually the area under the concentration-time curve extrapolated to infinity) is 30500 ng·h/mL; the AUC(0-t) (usually the area under the concentration-time curve up to a stated or last time point) amounted to 30300 ng·h/mL; the highest level (Cmax) was 23.4 µM; the Tmax (in general, the time at which the peak concentration occurs) amounted to 1 h. Further, the half-life in data set [3] (intraperitoneal (IP)) was 222 min. For the same compound, in data set [3] (oral (PO)), the AUC(0-inf) turned out to be 5220 ng·h/mL, the AUC(0-t) is 4750 ng·h/mL, the peak level (Cmax) was 2.3 µM and the time to peak (Tmax) stood at 1 h. The half-life in data set [3] (oral (PO)) is 114 min. Also, the “RalB activity in tumors” value at RalB is on record as “inhibition of RalB”. Besides, in data set [4], the “efficacy of the combination with AZD6244” value is listed as “synergistic efficacy”.
